Our source for the IC50 values is BindingDB's records for doi:10.1021/jm101238d (University of Salerno, 2011).

Usually IC50 stands for the midpoint of a concentration-inhibition curve.

The structures appear in SMILES notation. A value given as a limit tells only on which side of the number the result lay.

This experiment deals with Prostaglandin E synthase, mPGES-1 (Homo sapiens) (UniProt O14684). Briefly: Inhibition of Prostaglandin E2 synthase-1 in IL1-beta stimulated microsomal fraction of human A549 cell assessed as PGE2 level by RP-HPLC.
Prostaglandin E synthase, mPGES-1 (Homo sapiens), sequence (O14684 whole entry, looked up): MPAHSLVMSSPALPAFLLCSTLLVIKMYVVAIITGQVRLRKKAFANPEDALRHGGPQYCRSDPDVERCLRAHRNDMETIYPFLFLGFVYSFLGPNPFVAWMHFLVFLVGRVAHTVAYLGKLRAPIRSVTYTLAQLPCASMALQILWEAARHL

As to `Oc1cccc(-c2ccc(-c3cn(CSc4ccccc4)nn3)cc2)c1` [4'-(1-Phenylsulfanylmethyl-1H-[1,2,3]triazol-4-yl)-biphenyl-3-ol], the IC50 was > 30 µM. Regarding `Oc1ccc(-c2ccc(-c3cn(CSc4ccccc4)nn3)cc2)cc1` [4'-(1-Phenylsulfanylmethyl-1H-[1,2,3]triazol-4-yl)-biphenyl-4-ol], the IC50 was > 30 µM. As for `Cc1ccccc1CCn1cc(-c2ccc(-c3ccc(N)cc3)cc2)nn1` [4'-[1-(2-o-Tolyl-ethyl)-1H-[1,2,3]triazol-4-yl]-biphenyl-4-ylamine], the figure is > 30 µM. As for `Oc1ccc(-c2ccc(-c3cn(CCCc4ccccc4)nn3)cc2)cc1` [4'-[1-(3-Phenyl-propyl)-1H-[1,2,3]triazol-4-yl]-biphenyl-4-ol], the figure is > 30 µM; as for `c1ccc(CCCn2cc(-c3ccc(-c4ccc(Oc5ccccc5)cc4)cc3)nn2)cc1` [4-(4'-Phenoxy-biphenyl-4-yl)-1-(3-phenyl-propyl)-1H-[1,2,3]triazole], > 30 µM. Next, `O=C(O)c1ccc(Cn2cc(-c3ccc(-c4ccccc4)cc3)nn2)c([N+](=O)[O-])c1` [4-(4-Biphenyl-4-yl-[1,2,3]triazol-1-ylmethyl)-3-nitro-benzoic acid]: 3.2 µM. On to `c1ccc(CCCn2cc(-c3ccc(-c4cc5ccccc5c5ccccc45)cc3)nn2)cc1` [4-(4-Phenanthren-9-yl-phenyl)-1-(3-phenyl-propyl)-1H-[1,2,3]triazole], for which the IC50 is > 30 µM. Next, `O=Cc1ccc(-c2c(Cc3ccccc3)nnn2CSc2ccccc2)cc1` [4-(5-Benzyl-3-phenylsulfanylmethyl-3H-[1,2,3]triazol-4-yl)-benzaldehyde]: > 30 µM.

Consider `Cc1ccccc1CCn1cc(-c2ccc(-c3ccccc3COc3cc(C(F)(F)F)ccc3Cl)cc2)nn1` [4-[2'-(2-Chloro-5-trifluoromethyl-phenoxymethyl)-biphenyl-4-yl]-1-(2-o-tolyl-ethyl)-1H-[1,2,3]triazole], for which the IC50 is > 30 µM. As for `FC(F)(F)c1ccc(Cl)c(OCc2ccccc2-c2ccc(-c3cn(CCCc4ccccc4)nn3)cc2)c1` [4-[2'-(2-Chloro-5-trifluoromethyl-phenoxymethyl)-biphenyl-4-yl]-1-(3-phenyl-propyl)-1H-[1,2,3]triazole], the figure is > 30 µM; as for `Cc1ccccc1CCn1cc(-c2ccc(-c3ccccc3COc3cccc4ccccc34)cc2)nn1` [4-[2'-(Naphthalen-1-yloxymethyl)-biphenyl-4-yl]-1-(2-o-tolyl-ethyl)-1H-[1,2,3]triazole], > 30 µM. `c1ccc(CCCn2cc(-c3ccc(-c4ccccc4COc4cccc5ccccc45)cc3)nn2)cc1` [4-[2'-(Naphthalen-1-yloxymethyl)-biphenyl-4-yl]-1-(3-phenyl-propyl)-1H-[1,2,3]triazole]: the IC50 is > 30 µM. Next, `O=C(O)c1ccc(S(=O)(=O)n2cc(-c3ccc(-c4ccccc4COc4cccc5ccccc45)cc3)nn2)cc1` [4-{4-[2'-(Naphthalen-1-yloxymethyl)-biphenyl-4-yl]-1,2,3]triazole-1-sulfonyl}-benzoic acid]: > 30 µM; `CN(C)c1cccc2c(S(=O)(=O)Nc3ccc(-c4ccc(-c5cn(CCCc6ccccc6)nn5)cc4)cc3)cccc12` [5-Dimethylamino-naphthalene-1-sulfonic acid{4'-[1-(3-phenyl-propyl)-1H-[1,2,3]triazol-4-yl]-biphenyl-4-yl}-amide]: > 30 µM; `O=C(OCc1cn(CSc2ccccc2)nn1)c1ccccc1` [Benzoic acid 1-Phenylsulfanylmethyl-1H-[1,2,3]Triazol-4-ylmethyl Ester]: > 30 µM.
